According to PubChem BioAssay AID1963435 (Molecular Pharmacology Branch, DTP, NCI, 2024):
Where “and” joins values, the source holds several entries; their conditions need not be identical. Equal entries are not always repeated.

Tested on: PANC-1 complex spheroid growth, percent test/control
Assay: Anticancer human tumor PANC-1 cell line growth inhibition [Asc];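 note: spheroids exposed to agents for 7 days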;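 for viability, T/C: percent viability relative to DMSO vehicle wells taken as 100%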
Settings: for viability, T/C: stronger effect = lower value
Outline: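 Stromal components (HUVEC and hMSC) are co-assembled with the cancer cells into multicellular spheroids. Drugs are then added singly or paired, at concentrations falling by half-log increments from a clinically achievable maximum, capped at 10 microM without known Cmax.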

[1] = curve of first compound, second compound 0.0316 µM
[2] = curve of first compound, second compound 0.1 µM
[3] = curve of first compound, second compound 0.316 µM
[4] = curve of first compound, second compound 1 µM

Structure (SMILES): Cc1nc(N2CCC3(CC2)COC(C)C3N)c(CO)nc1Sc1ccnc(N)c1Cl (stereo unspecified) + Cc1c(S(C)(=O)=O)c(-c2cc(F)cc(N3CCN(c4ccc(NS(=O)(=O)c5ccc(NC(CCN6CCC(C(=O)OCCCP(=O)(O)O)CC6)CSc6ccccc6)c(S(=O)(=O)C(F)(F)F)c5)cc4)CC3)c2)c(-c2ccc(Cl)cc2)n1C(C)C
- IC50 [1]: > 3 µM
- IC50 [2]: > 3 µM
- IC50 [3]: > 3 µM
- IC50 [4]: > 3 µM
- IC50 (curve of first compound, second compound 3.16 µM): > 3 µM
- IC50 (curve of first compound, second compound 10 µM): > 3 µM
- viability, T/C (second compound 0.0316 µM, first compound 0.00949 µM): 87.6%
- viability, T/C (second compound 0.0316 µM, first compound 0.03 µM): 96.6%
- viability, T/C (second compound 0.0316 µM, first compound 0.0949 µM): 88.2%
- viability, T/C (second compound 0.0316 µM, first compound 0.3 µM): 94.1%
- viability, T/C (second compound 0.0316 µM, first compound 0.949 µM): 89.5%
- viability, T/C (second compound 0.0316 µM, first compound 3 µM): 95.2%
- viability, T/C (second compound 0.1 µM, first compound 0.00949 µM): 92.8%
- viability, T/C (second compound 0.1 µM, first compound 0.03 µM): 88.3%
- viability, T/C (second compound 0.1 µM, first compound 0.0949 µM): 83.3%
- viability, T/C (second compound 0.1 µM, first compound 0.3 µM): 90.1%
- viability, T/C (second compound 0.1 µM, first compound 0.949 µM): 87.8%
- viability, T/C (second compound 0.1 µM, first compound 3 µM): 84.7%
- viability, T/C (second compound 0.316 µM, first compound 0.00949 µM): 103%
- viability, T/C (second compound 0.316 µM, first compound 0.03 µM): 93.4%
- viability, T/C (second compound 0.316 µM, first compound 0.0949 µM): 89.8%
- viability, T/C (second compound 0.316 µM, first compound 0.3 µM): 87.6%
- viability, T/C (second compound 0.316 µM, first compound 0.949 µM): 91.8%
- viability, T/C (second compound 0.316 µM, first compound 3 µM): 86.7%
- viability, T/C (second compound 1 µM, first compound 0.00949 µM): 102%
- viability, T/C (second compound 1 µM, first compound 0.03 µM): 91.8%
- viability, T/C (second compound 1 µM, first compound 0.0949 µM): 85.9%
- viability, T/C (second compound 1 µM, first compound 0.3 µM): 84.5%
- viability, T/C (second compound 1 µM, first compound 0.949 µM): 88.2%
- viability, T/C (second compound 1 µM, first compound 3 µM): 85.5%
- viability, T/C (second compound 3.16 µM, first compound 0.00949 µM): 101%
- viability, T/C (second compound 3.16 µM, first compound 0.03 µM): 94.5%
- viability, T/C (second compound 3.16 µM, first compound 0.0949 µM): 86.2%
- viability, T/C (second compound 3.16 µM, first compound 0.3 µM): 92.9%
- viability, T/C (second compound 3.16 µM, first compound 0.949 µM): 84.6%
- viability, T/C (second compound 3.16 µM, first compound 3 µM): 77.8%
- viability, T/C (second compound 10 µM, first compound 0.00949 µM): 175%
- viability, T/C (second compound 10 µM, first compound 0.03 µM): 177%
- viability, T/C (second compound 10 µM, first compound 0.0949 µM): 161%
- viability, T/C (second compound 10 µM, first compound 0.3 µM): 161%
- viability, T/C (second compound 10 µM, first compound 0.949 µM): 164%
- viability, T/C (second compound 10 µM, first compound 3 µM): 147%

Structure (SMILES): Cn1ncnc1[C@H]1c2n[nH]c(=O)c3cc(F)cc(c23)N[C@@H]1c1ccc(F)cc1
- viability, T/C (compound 0.000316 µM): 97.2% and 109% and 94.1%
- viability, T/C (compound 0.001 µM): 104% and 101% and 106%
- viability, T/C (compound 0.00316 µM): 99.2% and 110% and 107%
- viability, T/C (compound 0.01 µM): 98.5% and 105% and 109%
- viability, T/C (compound 0.0316 µM): 109% and 105% and 108%
- viability, T/C (compound 0.1 µM): 109% and 105% and 115%
- IC50 (curve of compound): > 0.1 µM

Structure (SMILES): C#Cc1c(F)ccc2cc(O)cc(-c3ncc4c(N5CC6CCC(C5)N6)nc(OCC56CCCN5CC(F)C6)nc4c3F)c12 (stereo unspecified) + CNC(C)C(=O)NC1CN(S(=O)(=O)c2cccc(S(=O)(=O)N3CCC4CCC(C(=O)NC(c5ccccc5)c5ccccc5)N4C(=O)C(NC(=O)C(C)NC)C3)c2)CCC2CCC(C(=O)NC(c3ccccc3)c3ccccc3)N2C1=O
- IC50 (curve of first compound, second compound 0.00316 µM): > 10 µM
- IC50 (curve of first compound, second compound 0.01 µM): > 10 µM
- IC50 [1]: > 10 µM
- IC50 [2]: > 10 µM
- IC50 [3]: > 10 µM
- IC50 [4]: > 10 µM
- viability, T/C (second compound 0.00316 µM, first compound 0.0316 µM): 93.3%
- viability, T/C (second compound 0.00316 µM, first compound 0.1 µM): 85.7%
- viability, T/C (second compound 0.00316 µM, first compound 0.316 µM): 88%
- viability, T/C (second compound 0.00316 µM, first compound 1 µM): 85.6%
- viability, T/C (second compound 0.00316 µM, first compound 3.16 µM): 91%
- viability, T/C (second compound 0.00316 µM, first compound 10 µM): 78%
- viability, T/C (second compound 0.01 µM, first compound 0.0316 µM): 91.6%
- viability, T/C (second compound 0.01 µM, first compound 0.1 µM): 81.9%
- viability, T/C (second compound 0.01 µM, first compound 0.316 µM): 89.2%
- viability, T/C (second compound 0.01 µM, first compound 1 µM): 76.4%
- viability, T/C (second compound 0.01 µM, first compound 3.16 µM): 86.5%
- viability, T/C (second compound 0.01 µM, first compound 10 µM): 78.7%
- viability, T/C (second compound 0.0316 µM, first compound 0.0316 µM): 88.9%
- viability, T/C (second compound 0.0316 µM, first compound 0.1 µM): 77.8%
- viability, T/C (second compound 0.0316 µM, first compound 0.316 µM): 76.6%
- viability, T/C (second compound 0.0316 µM, first compound 1 µM): 82%
- viability, T/C (second compound 0.0316 µM, first compound 3.16 µM): 79.7%
- viability, T/C (second compound 0.0316 µM, first compound 10 µM): 70.1%
- viability, T/C (second compound 0.1 µM, first compound 0.0316 µM): 90.8%
- viability, T/C (second compound 0.1 µM, first compound 0.1 µM): 85.2%
- viability, T/C (second compound 0.1 µM, first compound 0.316 µM): 85.6%
- viability, T/C (second compound 0.1 µM, first compound 1 µM): 73.7%
- viability, T/C (second compound 0.1 µM, first compound 3.16 µM): 78.8%
- viability, T/C (second compound 0.1 µM, first compound 10 µM): 75.4%
- viability, T/C (second compound 0.316 µM, first compound 0.0316 µM): 83%
- viability, T/C (second compound 0.316 µM, first compound 0.1 µM): 81.8%
- viability, T/C (second compound 0.316 µM, first compound 0.316 µM): 77.1%
- viability, T/C (second compound 0.316 µM, first compound 1 µM): 76.4%
- viability, T/C (second compound 0.316 µM, first compound 3.16 µM): 79.6%
- viability, T/C (second compound 0.316 µM, first compound 10 µM): 70.3%
- viability, T/C (second compound 1 µM, first compound 0.0316 µM): 90.1%
- viability, T/C (second compound 1 µM, first compound 0.1 µM): 82.2%
- viability, T/C (second compound 1 µM, first compound 0.316 µM): 77.1%
- viability, T/C (second compound 1 µM, first compound 1 µM): 80.4%
- viability, T/C (second compound 1 µM, first compound 3.16 µM): 77.8%
- viability, T/C (second compound 1 µM, first compound 10 µM): 69.2%
